Source: patent publication US20200368312A1 (priority 2017, published 2020)
Read-outs that look alike come from different tables or passages of the source.

Legend:
[1] = tested on: quality control strain ATCC 29213 (MSSA); experiment: MIC, CLSI-guided broth susceptibility testing (Example 10); assay type: cell-based, Staphylococcus aureus
Experimental: (§1) MIC Testing: Glycopeptide compounds were dissolved in 100% DMSO. In vitro activities were determined using CLSI-guided broth susceptibility testing to measure drug minimum inhibitory concentrations (MICs) of the compounds against the quality control strain ATCC 29213 (MSSA) and the MRSA isolate ATCC BAA-1556. Glycopeptides are defined as compounds of Formula (I), and their respective R^1, R^2, R^3 and R^4 groups. X is —O— for each compound in Table 2.

[2] = tested on: MRSA isolate ATCC BAA-1556; experiment: as above; assay type: cell-based, Staphylococcus aureus
Experimental: as §1

S. lugdenensis (CoNS) = experiment: Broth microdilution MIC, S. lugdenensis (CoNS) (Table 7); assay type: cell-based; conditions: S. lugdenensis (CoNS) MMX 8724
S. epidermidis (CoNS) = experiment: Broth microdilution MIC, S. epidermidis (CoNS) (Table 7); assay type: cell-based
S. haemolyticus (CoNS) = experiment: Broth microdilution MIC, S. haemolyticus (CoNS) (Table 7); assay type: cell-based; conditions: S. haemolyticus (CoNS) MMX 529 ATCC 29970
Streptococci = experiment: Broth microdilution MIC, Streptococci (Example 11, Table 7); assay type: cell-based
Staphylococcus aureus = experiment: microbe, parasite or virus in culture; assay type: cell-based; conditions: for RV40 activity as compared to Comparator: MRSA strains (Table 5)
Enterococci = assay type: cell-based
P. acnes = experiment: Broth microdilution MIC, P. acnes (Table 7); assay type: cell-based
Clostridium difficile = experiment: Broth microdilution MIC, C. difficile, anaerobic, supplemented Brucella Broth (Example 11, Table 7); assay type: cell-based
S. hominis (CoNS) = experiment: Broth microdilution MIC, S. hominis (CoNS) (Table 7); assay type: cell-based; conditions: S. hominis (CoNS) MMX 667 ATCC 27844
P. anaerobius = experiment: Broth microdilution MIC, P. anaerobius (Table 7); assay type: cell-based; conditions: P. anaerobius MMX 1208 ATCC 27337
P. micros = experiment: Broth microdilution MIC, P. micros (Table 7); assay type: cell-based; conditions: P. micros MMX 3546
C. perfringens = assay type: cell-based; conditions: C. perfringens MMX 8351 ATCC 13124
E. lenta = experiment: Broth microdilution MIC, E. lenta (Table 7); assay type: cell-based; conditions: E. lenta MMX 1287 ATCC 43055
[3] = S. epidermidis (CoNS) MMX 762, MRSE
[4] = S. epidermidis (CoNS) MMX 5145, MRSE
[5] = S. anginosus (AGS) MMX 1201 ATCC 33397
[6] = S. pneumoniae MMX 1195 ATCC 49619, PISP
[7] = E. faecalis MMX 101 ATCC 29212, VSE
[8] = C. difficile MMX 4381 ATCC 700057, toxinAB-negative
[9] = C. difficile MMX 4994 ATCC BAA-1805, ribotype 027
[10] = C. difficile MMX 5668 ATCC BAA-1870, NAP1/027

CCCCCCCCCCNCCN[C@@]1(C)C[C@H](O[C@H]2[C@H](Oc3c4cc5cc3Oc3ccc(cc3Cl)[C@@H](O)[C@@H](NC(=O)[C@@H](CC(C)C)NC)C(=O)N[C@@H](CC(N)=O)C(=O)N[C@H]5C(=O)N[C@H]3C(=O)N[C@H](C(=O)N[C@H](C(=O)O)c5cc(O)c(CNCP(=O)(O)O)c(O)c5-c5cc3ccc5O)[C@H](O)c3ccc(c(Cl)c3)O4)O[C@H](CO)[C@@H](O)[C@@H]2O)O[C@@H](C)[C@H]1O [Telavancin]
0.12 µg/mL: MIC (S. epidermidis (CoNS); [3]) | MIC (Streptococci; S. dysgalactiae MMX 5121) | MIC (Staphylococcus aureus; S. aureus MMX 2490, MSSA) | MIC (Staphylococcus aureus; S. aureus MMX 4658, VISA) | MIC (Staphylococcus aureus; S. aureus MMX 4660, VISA) | MIC (Staphylococcus aureus; S. aureus MMX 5989, Mu3, hVISA) | MIC (Staphylococcus aureus; S. aureus MMX 7908, MSSA) | MIC (Enterococci; [7]) | MIC (Clostridium difficile; [8]) | MIC (Clostridium difficile; [9]) | MIC (Clostridium difficile; [10])
6 ×: RV40 activity as compared to Comparator (Staphylococcus aureus)
0.03 µg/mL: MIC (S. epidermidis (CoNS); [4]) | MIC (Streptococci; S. constellatus (AGS) MMX 5677) | MIC (Streptococci; S. dysgalactiae MMX 5124) | MIC (Streptococci; S. pneumoniae MMX 432, PRSP) | MIC (Streptococci; [6]) | MIC (Staphylococcus aureus; S. aureus MMX 7901, MRSA) | MIC (P. acnes; P. acnes MMX 7942 ATCC 6919) | MIC (P. anaerobius)
1 µg/mL: MIC (Enterococci; E. faecalis MMX 1086, VanA VRE)
0.015 µg/mL: MIC (Streptococci; S. pneumoniae MMX 747) | MIC (P. acnes; P. acnes MMX 7946 ATCC 11827) | MIC (C. perfringens)
0.06 µg/mL: MIC (S. lugdenensis (CoNS)) | MIC (S. haemolyticus (CoNS)) | MIC (Streptococci; S. agalactiae MMX 427 ATCC 13813) | MIC (Streptococci; S. agalactiae MMX 4088) | MIC (Streptococci; S. agalactiae MMX 4115, erm^R) | MIC (Streptococci; [5]) | MIC (Streptococci; S. mitis (MGS) MMX 1205 ATCC 49456) | MIC (Streptococci; S. oralis (MGS) MMX 5821) | MIC (Streptococci; S. pyogenes MMX 404 ATCC 19615) | MIC (Streptococci; S. pyogenes MMX 946, ermR) | MIC (Streptococci; S. pyogenes MMX 8778) | MIC (Staphylococcus aureus; S. aureus MMX 100 ATCC 29213, MSSA (quality control)) | MIC (Staphylococcus aureus; S. aureus MMX 2010, MRSA) | MIC (Staphylococcus aureus; S. aureus MMX 2011 ATCC BAA-1756, MRSA) | MIC (Staphylococcus aureus; S. aureus MMX 3982, MRSA) | MIC (Staphylococcus aureus; S. aureus MMX 4675 ATCC BAA-1556, MRSA) | MIC (Staphylococcus aureus; S. aureus MMX 5717 ATCC 33591, MRSA) | MIC (Staphylococcus aureus; S. aureus MMX 5985, MRSA) | MIC (Staphylococcus aureus; S. aureus MMX 5999, MRSA) | MIC (Staphylococcus aureus; S. aureus MMX 7899, MRSA) | MIC (Staphylococcus aureus; S. aureus MMX 7900, MRSA) | MIC (Staphylococcus aureus; S. aureus MMX 7902, MRSA) | MIC (Staphylococcus aureus; S. aureus MMX 7903, MRSA) | MIC (Staphylococcus aureus; S. aureus MMX 7907, MSSA) | MIC (Enterococci; E. faecium MMX 173, VanB VRE) | MIC (Enterococci; E. faecium MMX 4204) | MIC (S. hominis (CoNS)) | MIC (P. micros)
0.063 µg/mL: MIC Values MSSA 29213 [1] | MIC Values MRSA 1556 [2]
0.5 µg/mL: MIC (Staphylococcus aureus; S. aureus MMX 1723, Mu50, VISA) | MIC (Staphylococcus aureus; S. aureus MMX 2124, VISA, DaptoNS)
2 µg/mL: MIC (Enterococci; E. faecium MMX 851, VanA VRE)
0.25 µg/mL: MIC (Streptococci; S. dysgalactiae MMX 5123) | MIC (Staphylococcus aureus; S. aureus MMX 4665, hVISA) | MIC (Enterococci; E. faecalis MMX 4176)
potent activity: activity against vancomycin-resistant enterococci (VRE) (Enterococci; VRE, MIC values elevated relative to vancomycin-susceptible enterococci (VSE))

CN(C)c1cc(NC(=O)CNC(C)(C)C)c(O)c2c1C[C@H]1C[C@H]3[C@H](N(C)C)C(O)=C(C(N)=O)C(=O)[C@@]3(O)C(O)=C1C2=O [Tigecycline]
0.015 µg/mL: MIC (Streptococci; S. dysgalactiae MMX 5123) | MIC (Streptococci; S. pyogenes MMX 404 ATCC 19615) | MIC (Streptococci; S. pyogenes MMX 946, ermR) | MIC (P. micros)
0.18 µg/mL: MIC (Clostridium difficile; [8])
0.5 µg/mL: MIC (Staphylococcus aureus; Staphylococcus aureus, VISA, S. aureus MMX 1723, Mu50)
0.09 µg/mL: MIC (Staphylococcus aureus; Staphylococcus aureus, MRSA, S. aureus MMX 2010, MRSA) | MIC (Staphylococcus aureus; Staphylococcus aureus, VISA, S. aureus MMX 4660, VISA)
0.03 µg/mL: MIC (Streptococci; S. agalactiae MMX 4088) | MIC (Streptococci; S. agalactiae MMX 4115, erm^R) | MIC (Streptococci; S. constellatus (AGS) MMX 5677) | MIC (Streptococci; S. mitis (MGS) MMX 5798) | MIC (Streptococci; S. pneumoniae MMX 432, PRSP) | MIC (Streptococci; S. pneumoniae MMX 747) | MIC (Streptococci; S. pyogenes MMX 8778) | MIC (P. acnes; P. acnes MMX 7942 ATCC 6919) | MIC (P. acnes; P. acnes MMX 7946 ATCC 11827) | MIC (Clostridium difficile; [9]) | MIC (Clostridium difficile; [10]) | MIC (P. anaerobius)
0.045 µg/mL: MIC (Staphylococcus aureus; Staphylococcus aureus, VISA, S. aureus MMX 2124, VISA, DaptoNS)
0.008 µg/mL: MIC (Streptococci; [5])
16 ×: RV40 activity as compared to Comparator (Staphylococcus aureus)
0.06 µg/mL: MIC (S. lugdenensis (CoNS)) | MIC (S. epidermidis (CoNS); [3]) | MIC (S. haemolyticus (CoNS)) | MIC (Streptococci; S. dysgalactiae MMX 5121) | MIC (Streptococci; S. oralis (MGS) MMX 5821) | MIC (Streptococci; [6]) | MIC (Enterococci; [7]) | MIC (Enterococci; E. faecium MMX 173, VanB VRE) | MIC (Enterococci; E. faecium MMX 851, VanA VRE) | MIC (Enterococci; E. faecium MMX 4204)
0.185 µg/mL: MIC (Staphylococcus aureus; Staphylococcus aureus, MRSA, S. aureus MMX 3982, MRSA) | MIC (Staphylococcus aureus; Staphylococcus aureus, MRSA, S. aureus MMX 5985, MRSA) | MIC (Staphylococcus aureus; Staphylococcus aureus, MRSA, S. aureus MMX 7900, MRSA)
0.75 µg/mL: MIC (Staphylococcus aureus; Staphylococcus aureus, S. aureus MMX 5989, Mu3, hVISA)
0.25 µg/mL: MIC (E. lenta) | MIC (Staphylococcus aureus; Staphylococcus aureus, ATCC 29213 / MSSA, S. aureus MMX 100 ATCC 29213, MSSA (quality control)) | MIC (Staphylococcus aureus; Staphylococcus aureus, ATCC 33591 / MRSA, S. aureus MMX 5717 ATCC 33591, MRSA) | MIC (Staphylococcus aureus; Staphylococcus aureus, S. aureus MMX 4665, hVISA)
0.12 µg/mL: MIC (S. epidermidis (CoNS); [4]) | MIC (Streptococci; S. dysgalactiae MMX 5124) | MIC (Staphylococcus aureus; Staphylococcus aureus, ATCC BAA-1556 / MRSA, S. aureus MMX 4675 ATCC BAA-1556, MRSA) | MIC (Staphylococcus aureus; Staphylococcus aureus, ATCC BAA-1756 / MRSA, S. aureus MMX 2011 ATCC BAA-1756, MRSA) | MIC (Staphylococcus aureus; Staphylococcus aureus, MRSA, S. aureus MMX 5999, MRSA) | MIC (Staphylococcus aureus; Staphylococcus aureus, MRSA, S. aureus MMX 7899, MRSA) | MIC (Staphylococcus aureus; Staphylococcus aureus, MRSA, S. aureus MMX 7901, MRSA) | MIC (Staphylococcus aureus; Staphylococcus aureus, MRSA, S. aureus MMX 7902, MRSA) | MIC (Staphylococcus aureus; Staphylococcus aureus, MRSA, S. aureus MMX 7903, MRSA) | MIC (Staphylococcus aureus; Staphylococcus aureus, MSSA, S. aureus MMX 2490, MSSA) | MIC (Staphylococcus aureus; Staphylococcus aureus, MSSA, S. aureus MMX 7907, MSSA) | MIC (Staphylococcus aureus; Staphylococcus aureus, MSSA, S. aureus MMX 7908, MSSA) | MIC (Staphylococcus aureus; Staphylococcus aureus, VISA, S. aureus MMX 4658, VISA) | MIC (Enterococci; E. faecalis MMX 1086, VanA VRE) | MIC (Enterococci; E. faecalis MMX 4176) | MIC (S. hominis (CoNS)) | MIC (C. perfringens)
